From ChEMBL document CHEMBL4257485, “The critical role of novel benzophenone analogs on tumor growth inhibition targeting angiogenesis and apoptosis” (Medchemcomm, 2018)
The source made the active and inactive calls. No cut-off for these calls is given here.

Tests used:
A549 [1] = test: Cytotoxicity against human A549 cells after 48 hrs by trypan blue exclusion assay; assay type: functional, cell-based; conditions: A549, 48 h
MCF7 [2] = test: Cytotoxicity against human MCF7 cells after 48 hrs by trypan blue exclusion assay; assay type: functional, cell-based; conditions: MCF7, 48 h
HeLa [3] = test: Cytotoxicity against human HeLa cells after 48 hrs by trypan blue exclusion assay; assay type: functional, cell-based
MCF7 [4] = test: Cytotoxicity against human MCF7 cells after 48 hrs by MTT assay; assay type: functional, cell-based; conditions: MCF7, 48 h
HeLa [5] = test: Cytotoxicity against human HeLa cells after 48 hrs by LDH release assay; assay type: functional, cell-based
NIH3T3 [6] = test: Cytotoxicity against mouse NIH/3T3 cells after 48 hrs by trypan blue exclusion assay; assay type: cell-based; conditions: NIH3T3, 48 h
A549 [7] = test: Cytotoxicity against human A549 cells after 48 hrs by LDH release assay; assay type: functional, cell-based; conditions: A549, 48 h
NIH3T3 [8] = test: Cytotoxicity against mouse NIH/3T3 cells after 48 hrs by LDH release assay; assay type: cell-based; conditions: NIH3T3, 48 h
NIH3T3 [9] = test: Cytotoxicity against mouse NIH/3T3 cells after 48 hrs by MTT assay; assay type: cell-based; conditions: NIH3T3, 48 h
A549 [10] = test: Cytotoxicity against human A549 cells after 48 hrs by MTT assay; assay type: functional, cell-based; conditions: A549, 48 h
HeLa [11] = test: Cytotoxicity against human HeLa cells after 48 hrs by MTT assay; assay type: functional, cell-based
MCF7 [12] = test: Cytotoxicity against human MCF7 cells after 48 hrs by LDH release assay; assay type: functional, cell-based; conditions: MCF7, 48 h
A549 [13] = test: Inhibition of migration of human A549 cells at 25 uM after 48 hrs by scratch wound assay relative to control; assay type: functional; conditions: A549, 48 h
A549 [14] = test: Cell cycle arrest in human A549 cells assessed as accumulation at S phase at IC50 after 16 hrs by propidium iodide staining-based flow cytometric method (reference value: 24.8%); assay type: functional
Chorioallantoic membrane [15] = test: Ex vivo angioprotective activity in chicken CAM assessed as inhibition of recombinant VEGF165-induced neovuscularization at 1 mg/ml after 72 hrs; assay type: functional, tissue-based; conditions: Gallus gallus
A549 [16] = test: Induction of apoptosis in human A549 cells assessed as necrotic cells at IC50 after 12 to 15 hrs by annexin-V-FITC/propidium iodide staining-based flow cytometric method (reference value: 10.2%); assay type: functional
A549 [17] = test: Induction of apoptosis in human A549 cells assessed as caspase-3 activation by immunoblot method; assay type: functional, cell-based
A549 [18] = test: Antiangiogenic activity in human A549 cells xenografted in chicken CAM assessed as reduction in recombinant VEGF165-induced MVD/HPF at 1 mg/ml measured on day 12 post fertilization by hematoxylin and eosin staining-based assay relative to control; assay type: functional; parameters: scale not given: the % may be the effect or the level left
A549 [19] = test: Cell cycle arrest in human A549 cells assessed as increase in accumulation at sub-G0 phase at IC50 after 48 hrs by propidium iodide staining-based flow cytometric method; assay type: functional
A549 [20] = test: Downregulation of VEGF expression in human A549 cells by immunoblot method; assay type: functional, cell-based
A549 [21] = test: Cell cycle arrest in human A549 cells assessed as decrease in cell levels at G2/M phase at IC50 after 24 to 48 hrs by propidium iodide staining-based flow cytometric method; assay type: functional
A549 [22] = test: Cell cycle arrest in human A549 cells assessed as accumulation at G0/G1 phase at IC50 after 16 hrs by propidium iodide staining-based flow cytometric method (reference value: 70.8%); assay type: functional
Chorioallantoic membrane [23] = test: In vivo angioprotective activity in chicken CAM assessed as inhibition of recombinant VEGF165-induced neovuscularization at 1 mg/ml after 72 hrs; assay type: functional, Gallus gallus
Homo sapiens = species on record: Homo sapiens; test: Induction of endonuclease activity in cytosolic fraction of human A549 cells assessed as increase in DNA lysis zone at 85 uM by SYBR green dye-based agarose gel electrophoresis
A549 [24] = test: Induction of morphological changes in human A549 cells assessed as membrane blebbing by Giemsa staining-based microscopic method; assay type: functional, cell-based
A549 [25] = test: Induction of apoptosis in human A549 cells assessed as live cells at IC50 after 12 to 15 hrs by annexin-V-FITC/propidium iodide staining-based flow cytometric method (reference value: 73.8%); assay type: functional
Chorioallantoic membrane [26] = test: In vivo angioprotective activity in chicken CAM assessed as decrease in recombinant VEGF165-induced total vessel length at 1 mg/ml after 72 hrs; assay type: functional, Gallus gallus; parameters: scale not given: the % may be the effect or the level left
A549 [27] = test: Inhibition of migration of human A549 cells at 50 uM after 48 hrs by scratch wound assay relative to control; assay type: functional; conditions: A549, 48 h
A549 [28] = test: Antiangiogenic activity in human A549 cells xenografted in chicken CAM assessed as reduction in recombinant VEGF165-induced MVD/HPF measured on day 12 post fertilization by hematoxylin and eosin staining-based assay; assay type: functional, cell-based
A549 [29] = test: Induction of apoptosis in human A549 cells assessed as late apoptotic cells at IC50 after 12 to 15 hrs by annexin-V-FITC/propidium iodide staining-based flow cytometric method (reference value: 14.3%); assay type: functional
A549 [30] = test: Induction of morphological changes in human A549 cells assessed as irregular shape by Giemsa staining-based microscopic method; assay type: functional, cell-based
A549 [31] = test: Cell cycle arrest in human A549 cells assessed as accumulation at G2/M phase at IC50 after 16 hrs by propidium iodide staining-based flow cytometric method (reference value: 3.44%); assay type: functional
[32] = test system: Enterobacteria phage lambda; test: Induction of lambda phage DNA fragmentation by agarose gel electrophoresis
A549 [33] = test: Cell cycle arrest in human A549 cells assessed as accumulation at sub-G1 phase at IC50 after 16 hrs by propidium iodide staining-based flow cytometric method (reference value: 0.69%); assay type: functional
A549 [34] = test: Induction of apoptosis in human A549 cells assessed as early apoptotic cells at IC50 after 12 to 15 hrs by annexin-V-FITC/propidium iodide staining-based flow cytometric method (reference value: 1.65%); assay type: functional
A549 [35] = test: Induction of morphological changes in human A549 cells assessed as formation of apoptotic bodies by Giemsa staining-based microscopic method; assay type: functional, cell-based
A549 [36] = test: Inhibition of colony formation of human A549 cells at 25 to 50 uM pretreated for 6 hrs followed by subsequent incubation for 12 days by crystal violet staining-based assay; assay type: functional, cell-based
A549 [37] = test: Antitumor activity against human A549 cells xenografted in chicken CAM assessed as reduction in tumor progression at 1 mg/ml measured on day 12 post fertilization by hematoxylin and eosin staining-based assay relative to control; assay type: functional
Chorioallantoic membrane [38] = test: Ex vivo angioprotective activity in chicken CAM assessed as decrease in recombinant VEGF165-induced total vessel length at 1 mg/ml after 72 hrs; assay type: functional, tissue-based; parameters: scale not given: the % may be the effect or the level left; conditions: Gallus gallus

`O=C(COc1ccc(C(=O)c2ccccc2)cc1)NNC(=O)c1ccc(=O)oc1` was tested, and the IC50 (A549 [1]) was 96.7 µM, the IC50 (MCF7 [2]) was 92.9 µM and the IC50 (HeLa [3]) was 89.2 µM. The IC50 (MCF7 [4]) was 93.2 µM, the IC50 (HeLa [5]) was 96.1 µM and the IC50 (NIH3T3 [6]) was 84.3 µM. The IC50 (A549 [7]) was 90.9 µM, the IC50 (NIH3T3 [8]) was 88.2 µM and the IC50 (NIH3T3 [9]) was 87.3 µM. For the same molecule, the IC50 (A549 [10]) was 98.8 µM, the IC50 (HeLa [11]) was 99.1 µM and the IC50 (MCF7 [12]) was 61.1 µM.

Molecule `Cc1ccc(C(=O)c2cc(F)c(OCC(=O)NNC(=O)c3ccc(=O)oc3)c(Cl)c2)cc1` has an IC50 (A549 [1]) of 19.6 µM, an IC50 (MCF7 [2]) of 29.1 µM and an IC50 (HeLa [3]) of 26.2 µM. The IC50 (MCF7 [4]) was 23.6 µM, the IC50 (HeLa [5]) was 26.9 µM and the IC50 (NIH3T3 [6]) was 30.8 µM. For the same molecule, the IC50 (A549 [7]) was 21.4 µM, the IC50 (NIH3T3 [8]) was 32.1 µM and the IC50 (NIH3T3 [9]) was 28.9 µM. The IC50 (A549 [10]) was 22.6 µM, the IC50 (HeLa [11]) was 20.9 µM and the IC50 (MCF7 [12]) was 24.2 µM.

`Cc1ccc(C(=O)c2cc(F)c(OCC(=O)NNC(=O)c3cn(C)cn3)c(Cl)c2)cc1` gave an IC50 (A549 [1]) of 9.6 µM, an inhibition at 25 µM (A549 [13]) of 15.6% and an IC50 (MCF7 [2]) of 9.5 µM. For the same molecule, the Activity (A549 [14]) was 16.7%, the inhibition (Chorioallantoic membrane [15]) was 26% and the Activity (A549 [16]) was 17.4%. For the same molecule, the Activity (A549 [17]) was “Active”, the Activity (A549 [18]) was 86.2% and the IC50 (HeLa [3]) was 10.2 µM. For the same molecule, the Activity (A549 [19]) was “Active”, the Activity (A549 [20]) was “Active” and the Activity (A549 [21]) was “Active”. For the same molecule, the Activity (A549 [22]) was 75.9%, the IC50 (MCF7 [4]) was 9.8 µM and the “inhibition (INH)” value (Chorioallantoic membrane [23]) was 24%. The Activity (Homo sapiens) was “Active”, the IC50 (HeLa [5]) was 10.4 µM and the Activity (A549 [24]) was “Active”. For the same molecule, the Activity (A549 [25]) was 33.5%, the Activity (Chorioallantoic membrane [26]) was 85% and the inhibition at 50 µM (A549 [27]) was 78.8%. The Activity (A549 [28]) was “Dose-dependent effect”, the Activity (A549 [29]) was 48.4% and the Activity (A549 [30]) was “Active”. For the same molecule, the IC50 (NIH3T3 [6]) was 93.8 µM, the IC50 (A549 [7]) was 9.1 µM and the Activity (A549 [31]) was 1.62%. The Activity [32] was “Active”, the IC50 (NIH3T3 [8]) was 94.9 µM and the IC50 (NIH3T3 [9]) was 94.2 µM. It also gave an Activity (A549 [33]) of 5.83%, an Activity (A549 [34]) of 0.6% and an IC50 (A549 [10]) of 8.8 µM. For the same molecule, the Activity (A549 [35]) was “Active”, the IC50 (HeLa [11]) was 9.9 µM and the inhibition (A549 [36]) was “Active”. The IC50 (MCF7 [12]) was 9.4 µM, the “fold change (FC)” value (A549 [37]) was 1.7 and the Activity (Chorioallantoic membrane [38]) was 85%.

`Cn1cnc(C(=O)NNC(=O)COc2ccc(C(=O)c3ccccc3)cc2)c1` was tested, and the IC50 (A549 [1]) was 29.6 µM, the IC50 (MCF7 [2]) was 29.6 µM and the IC50 (HeLa [3]) was 33.2 µM. For the same molecule, the IC50 (MCF7 [4]) was 30.6 µM, the IC50 (HeLa [5]) was 31.9 µM and the IC50 (NIH3T3 [6]) was 98.8 µM. The IC50 (A549 [7]) was 31.6 µM, the IC50 (NIH3T3 [8]) was 97.4 µM and the IC50 (NIH3T3 [9]) was 96.9 µM. For the same molecule, the IC50 (A549 [10]) was 30.6 µM, the IC50 (HeLa [11]) was 32.9 µM and the IC50 (MCF7 [12]) was 31.6 µM.

Molecule `O=C(COc1c(F)cc(C(=O)c2ccc(Cl)cc2)cc1Cl)NNC(=O)c1ccc(=O)oc1` has an IC50 (A549 [1]) of 86.7 µM, an IC50 (MCF7 [2]) of 90.6 µM and an IC50 (HeLa [3]) of 89.6 µM. The IC50 (MCF7 [4]) was 86.2 µM, the IC50 (HeLa [5]) was 85.1 µM and the IC50 (NIH3T3 [6]) was 79.3 µM. For the same molecule, the IC50 (A549 [7]) was 84.9 µM, the IC50 (NIH3T3 [8]) was 78.6 µM and the IC50 (NIH3T3 [9]) was 77.6 µM. It also gave an IC50 (A549 [10]) of 88.8 µM, an IC50 (HeLa [11]) of 87.1 µM and an IC50 (MCF7 [12]) of 83.8 µM.
